{"source": "patent US20220370506A1", "about": "“AUGMENTATION OF FIBROBLAST MEDIATED REGENERATION OF INTRAVERTEBRAL DISCS” (FIGENE, LLC, priority 2019, published 2022)", "origin": "cited, not measured here", "tested_on": "patients with chronic lumbosacral radiculopathy or discogenic low back pain", "key": {"[1]": {"settings": "authors' conclusion, single low dose intradiscal"}}, "data": [{"substance": "etanercept", "values": [{"measurement": "pain scores between or within groups", "setting": "1-month follow-up, 0.1, 0.25, 0.5, 0.75, 1.0, or 1.5 mg intradiscally in each pain-generating disc, any dose range or subgroup", "result": "no differences"}, {"measurement": "disability scores between or within groups", "setting": "1-month follow-up, 0.1-1.5 mg intradiscally, any dose range or subgroup", "result": "no differences"}, {"measurement": "effectiveness as treatment for chronic radicular or discogenic low back pain", "setting": "[1]", "result": "does not seem to be an effective treatment"}, {"measurement": "serious side effects", "setting": "[1]", "result": "no serious side effects were observed"}, {"measurement": "complications", "setting": "intradiscal 0.1-1.5 mg, 36 patients", "result": "No complications were reported"}, {"measurement": "preprocedure versus postprocedure leukocyte counts", "setting": "intradiscal 0.1-1.5 mg, 1-month follow-up", "result": "no differences were noted"}]}]}
